Like-named read-outs stand apart in the source and are kept apart here.

Data on 4 molecules can be found in publication PMC5966835 (Antiviral research, 2018).

The subject of data set [1] is Sindbis virus. Description: Live virus testing, Sindbis virus in BHK cells, plaque assay. The format is cell-based, Sindbis virus (TE/3'2J). To be noted: for Sindbis virus replication in vitro: BHK cells, MOI 0.1, 48 hours.
Data set [2] addresses T1, CHIKV nsP1 (Chikungunya virus, UniProt Q8JUX6).
T1 sequence (Q8JUX6 1-535 limits assumed): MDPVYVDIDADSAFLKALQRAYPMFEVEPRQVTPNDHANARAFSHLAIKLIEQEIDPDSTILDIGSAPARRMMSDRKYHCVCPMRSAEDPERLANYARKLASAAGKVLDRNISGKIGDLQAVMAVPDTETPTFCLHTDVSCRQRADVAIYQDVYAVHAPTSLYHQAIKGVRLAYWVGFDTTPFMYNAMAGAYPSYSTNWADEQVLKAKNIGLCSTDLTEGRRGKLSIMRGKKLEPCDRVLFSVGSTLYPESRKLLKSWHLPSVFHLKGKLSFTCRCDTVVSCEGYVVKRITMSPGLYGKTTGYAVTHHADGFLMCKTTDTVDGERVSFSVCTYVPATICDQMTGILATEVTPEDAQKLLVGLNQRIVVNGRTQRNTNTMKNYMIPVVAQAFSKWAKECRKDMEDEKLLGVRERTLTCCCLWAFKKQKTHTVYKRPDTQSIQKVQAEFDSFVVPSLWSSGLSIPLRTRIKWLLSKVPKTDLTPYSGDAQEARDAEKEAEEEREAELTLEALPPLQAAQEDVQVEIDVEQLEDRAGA
Description: Fluorescence polarization GTP-competition assay. The format is binding. To be noted: for more active against CHIKV nsP1 than Dengue NS5 (selectivity): Ki CHIKV nsP1 vs DENV NS5.

Data set [3] concerns the target T1, CHIKV nsP1. Description: Guanylation inhibition. Format: biochemical. The note with it: 200-3.1 µM, 1 hour at 37°C, n=3.
Data set [4] has as its system human adenosine-triphosphategated P2X7 receptor. The note with it: ref Fischer et al., 2014; cited from earlier work.
Data set [5] deals with DENV NS5 (Dengue virus type 2, UniProt P29990). Put plainly: GTP-binding inhibition of flavivirus NS5 capping enzyme.
DENV NS5, sequence (P29990 2492-2758 limits assumed): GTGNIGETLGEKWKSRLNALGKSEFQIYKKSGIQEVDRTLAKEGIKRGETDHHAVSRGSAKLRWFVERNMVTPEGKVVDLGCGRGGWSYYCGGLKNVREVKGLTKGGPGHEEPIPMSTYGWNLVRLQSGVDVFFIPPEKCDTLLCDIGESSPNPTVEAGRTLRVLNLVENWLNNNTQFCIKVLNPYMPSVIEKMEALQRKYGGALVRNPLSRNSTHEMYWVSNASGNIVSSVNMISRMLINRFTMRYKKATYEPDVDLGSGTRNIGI
In data set [6] the test system is CHIKV (strain OPY1). Put plainly: Live virus testing, CHIKV in BHK cells, plaque assay. To be noted: for CHIKV replication in BHK cells: MOI 0.1, 48 hours; for EC50: Chikungunya virus, BHK, read-out: BHK EC50. Format: cell-based, Chikungunya virus.
The nature of data set [7]: Cytotoxicity assay.
A short description of data set [8]: Cytotoxicity assay. To be noted: human.
Data set [9] relates to CHIKV. Put plainly: Live virus testing, CHIKV in Huh 7 cells, plaque assay. The format is cell-based. The note with it: Chikungunya virus, read-out: Huh 7 EC50.
For data set [10] the following is noted: cited from earlier work.

One may read the Ki as a dissociation constant, usually derived from enzyme kinetics or from competition with a known ligand. As to `CC(C)=CCCC1(C)C=Cc2c(O)c3c(c(CC=C(C)C)c2O1)OC12C(=CCCC1C(C)(C)O[C@@]2(C/C=C(\C)C(=O)O)C(=O)O)C3=O` (some centres unmarked) [garcinolic acid], the “Sindbis virus replication in vitro” value in data set [1] is listed as “did not markedly decrease Sindbis virus replication in vitro”. The inhibitory constant (Ki) in [2] is 14.5 ± 4.9 µM; in [5], 6.9 ± 0.4 µM. In addition, the “inhibition of CHIKV nsP1 guanylation activity” value (“inhibition” for short) in data set [3] was “inhibited CHIKV nsP1 guanlylation activity in a dose dependent manner”. Besides, in data set [4], the “Ca(2+) uptake of P2X7 receptor” value is “increase Ca(2+) uptake of the human adenosine-triphosphategated P2X7 receptor”. For the same molecule, in data set [6], the “CHIKV replication in BHK cells” value is recorded as “Neither pyrantel pamoate nor garcinolic acid were able to reduce CHIKV replication in BHK cells”.
For orientation: CC50 means the concentration that lowers cell viability or growth by half. Low readings indicate greater toxicity to the cells, high ones lower toxicity to the cells. Usually EC50 stands for the concentration at which the effect is half-maximal. As to `CCCCCc1c2c(cc(O)c1C(=O)O)OC(=O)c1c(cc(OC)cc1C(=O)CCCC)O2` [lobaric acid], the CC50 at 24 h is 76.3 ± 2.1 µM in [7] (hamster) and 60.5 ± 3.8 µM in data set [8]. For the same molecule, the results for the CC50 at 48 h in [7] (hamster) and in data set [8] were 53.8 ± 8.1 µM and 50 ± 1.3 µM, respectively. The CC50 in data set [7] (hamster and human) was in the range of 50 to 76 µM. The EC50 is 5.9 µM in [1] (Sindbis virus, BHK, 48 h, read-out: EC50 Sindbis virus growth); 16.3 ± 1.2 µM in data set [9] (Huh-7, 24 h); 5.3 ± 0.4 µM in data set [9] (Huh-7, 48 h); 9.9 ± 2.6 µM in [6] (24 h); 8.9 ± 1.3 µM in data set [6] (48 h). Moreover, the figures for the inhibition constant Ki in [2] and in [5] were 7 ± 0.6 µM and 43.8 ± 7 µM, respectively. Also, the “more active against CHIKV nsP1 than Dengue NS5 (selectivity)” value in [2] was about 5 X. Besides, the “inhibition” value in data set [3] was “inhibited CHIKV nsP1 guanlylation activity in a dose dependent manner”. The molecule also returned an average selectivity index in [6] (BHK and Huh 7 cells, 24 and 48 hours) of about 7. Moreover, the “CHIKV replication in BHK cells” value in data set [6] is recorded as “inhibited viral replication efficiently after 48 hours”.
Turning to `CN1CCCN=C1/C=C/c1cccs1` [pyrantel pamoate, reference compound], the “Sindbis virus replication in vitro” value in data set [1] is “did not markedly decrease Sindbis virus replication in vitro”. The inhibitory constant (Ki) in [2] worked out at 5 ± 0.3 µM; in data set [5], 38 ± 1.5 µM. Also, the “more active against CHIKV nsP1 than Dengue NS5 (selectivity)” value in data set [2] is listed as about 5 X. For the same molecule, in data set [3], the “inhibition” value was “inhibited CHIKV nsP1 guanlylation activity in a dose dependent manner”. Besides, the “absorption in the human intestine” value in data set [10] is given as “poorly absorbed in the human intestine”. In addition, in data set [6], the “CHIKV replication in BHK cells” value was “Neither pyrantel pamoate nor garcinolic acid were able to reduce CHIKV replication in BHK cells”.
On to `CCc1oc2ccccc2c1C(=O)c1cc(Br)c(O)c(Br)c1` [benzbromarone, Benzbromarone, reference compound], for which the Ki in data set [2] was determined as 13 ± 0.9 µM; in [5], 9 ± 0.7 µM. Further, the “inhibition” value in data set [3] is given as “only showed inhibitory activity at high µM concentrations”.
